The structures appear in SMILES notation.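 Where inhibition never reached the appropriate level, the endpoint shown equals the highest concentration tested. Otherwise, values were interpolated linearly from a five-concentration, 48-hour dose response in 96-well plates. GI50 = concentration required for 50% inhibition of growth. The concentration for full growth arrest is given as TGI.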 Bounds are passed on as bounds.

Assay in all cases: NCI-60 cell line screen, 48 h
Test [1] concerns NCI-H460 lung.
Test [2] concerns SF-268 CNS.
The test system of test [3] is PC-3 prostate.
Test [4] has as its system KM12 colon.
Test [5] relates to M14 melanoma.
Test [6] relates to UO-31 renal.
Test [7] concerns CAKI-1 renal.
For test [8], the system named is TK-10 renal.
Test [9] relates to UACC-257 melanoma.
Test [10] concerns CCRF-CEM leukemia.

For the compound `C=C1C(=O)OC2C1CCC(=C)C1CC(O)C(=C)C12` (stereo not given), the TGI in [1] came out at 36.6 µM; in test [2], 31.7 µM; in test [3], 28 µM; in [4] it was 30.4 µM; in [5], 41 µM; in test [6] it was 29.5 µM. Also, the TGI was found to be 9.78 µM in test [7], 20.6 µM in test [8], 27.2 µM in test [9] and 7.44 µM in test [10].
`CCCNC1=C2C[C@@H](C)C[C@@H](OC)[C@@H](OC(=O)CCCN)[C@H](C)/C=C(\C)[C@@H](OC(N)=O)[C@H](OC)/C=C\C=C(/C)C(=O)NC(=CC1=O)C2=O`: the TGI was determined as 34.1 µM in [1]; 36.7 µM in [2]; 26.9 µM in test [3]; 26.1 µM in [4]; 32.3 µM in [5]; 36.1 µM in [6]. Also, the TGI in test [7] turned out to be 38.5 µM; in test [8], 36.1 µM; in [9] it was 12 µM; in [10], 6.8 µM.
Turning to `CC(NC(=O)Cc1ccc(OP(=O)(OCc2ccc([N+](=O)[O-])o2)N(C)CCCCCl)cc1)c1ccc(OCC2CCCCC2)c(C(N)=O)c1` (stereo not given), the TGI turned out to be 13.1 µM in test [1]; 6.27 µM in [2]; 19.6 µM in test [3]; 5.91 µM in test [4]; 4.64 µM in [5]; 8.45 µM in [6]. Also, the TGI was found to be 20.7 µM in test [7], 15.6 µM in [8], 3.27 µM in test [9] and 6.14 µM in test [10].
Turning to `C[C@@H]1C[C@H]2OC(=O)[C@@]3(C)CCC[C@@](C)([C@@H]23)[C@@]1(O)CCc1ccoc1`, the TGI in test [1], in test [2], in [3], in test [4], in test [5] and in test [6] was more than 100 µM throughout. For the same compound, the TGI in test [7], in test [8], in [9] and in test [10] was more than 100 µM in each case.
As for `CCOC(=O)Oc1cc2ccsc2c2c1c1ccccc1n2C(=O)OCC`, the TGI was 86.1 µM in [1]; more than 100 µM in [2]; more than 100 µM in [3]; more than 100 µM in test [4]; more than 100 µM in test [5]; 60.8 µM in test [6]. Further, the TGI in test [7], in [8], in test [9] and in [10] was more than 100 µM each time.
On to `Cc1nc2cn3c(c2c(=O)[nH]1)CCCCC3`, for which the TGI in test [1], in test [2], in test [3], in [4], in test [5] and in test [6] was more than 100 µM each time. Moreover, the TGI in test [7], in test [8], in test [9] and in test [10] was more than 100 µM throughout.
For `O=C(O)c1cc2ccccc2c(Cc2c(O)c(C(=O)O)cc3ccccc23)c1O`, the TGI in test [1], in [2], in [3], in [4], in test [5] and in test [6] was more than 100 µM in each case. The TGI in [7], in [8], in test [9] and in [10] was more than 100 µM in each case.
With `Nc1nc(Cl)cc(NCC2(CO)CCCCC2)n1`, the TGI in [1], in [2], in test [3], in [4], in [5] and in test [6] was more than 100 µM in each case. Further, the TGI in test [7], in test [8], in test [9] and in [10] was more than 100 µM in each case.
In the case of `O=c1oc2ccc([N+](=O)[O-])cc2nc1/C=C(\O)c1ccccc1`, the TGI in [1], in test [2], in [3], in [4], in test [5] and in [6] was more than 100 µM each time. Further, the TGI is more than 100 µM in test [7], 93.4 µM in test [8], more than 100 µM in [9] and more than 100 µM in test [10].
Take `COC(CNC(=O)CNC(=O)c1ccc(C(F)(F)F)cc1)OC`: the TGI in test [1], in [2], in test [3], in test [4], in test [5] and in test [6] was more than 100 µM throughout. Besides, the TGI in [7], in [8], in [9] and in test [10] was more than 100 µM in each case.
On to `Cc1ccc(C2(O)c3ccccc3C(=O)N(C)C2(O)c2ccc(C)cc2)cc1` (stereo not given), for which the TGI is 75.8 µM in [1]; 50.6 µM in [2]; more than 100 µM in test [3]; more than 100 µM in [4]; more than 100 µM in test [5]; more than 100 µM in test [6]. Besides, the TGI in test [7] is more than 100 µM; in [8] it was more than 100 µM; in test [9] it was more than 100 µM; in [10] it was 39.3 µM.
`COc1ccc2c(c1)CC[C@@H]1[C@@H]2CC[C@]2(C)/C(=N/OCCN3CCCC3)CC[C@@H]12`: the TGI in test [1] was 3.08 µM; in test [2], 14.4 µM; in test [3], 13.5 µM; in test [4], 6.31 µM; in [5] it was 2.64 µM; in [6] it was 7.54 µM. Besides, the TGI was determined as 3.42 µM in [7], 16.9 µM in test [8], 3.81 µM in [9] and 3.67 µM in test [10].
On to `COc1c(C)c(C/C=C(\C)CC/C=C(\C)CC/C=C(\C)CCC=C(C)C)c(OC)c(OC)c1OC`, for which the TGI in test [1], in test [2], in test [3], in [4], in [5] and in test [6] was more than 100 µM in each case. For the same compound, the TGI in test [7], in test [8], in test [9] and in test [10] was more than 100 µM each time.
Consider `Cc1cccc2c(N)c3cccc(C(=O)NCC[N+](C)(C)Cc4ccc([N+](=O)[O-])n4C)c3nc12`, for which the TGI is more than 46.6 µM in test [1]; 61.9 µM in test [2]; more than 75.2 µM in [3]; 63.4 µM in test [4]; more than 69.6 µM in test [5]; 74.7 µM in test [6]. Besides, the TGI in [7] is more than 51.2 µM; in test [8], more than 100 µM; in test [9], more than 80.9 µM; in test [10], 41.8 µM.
As to `O=C(O)c1cc(N=Nc2ccc([N+](=O)[O-])cc2)ccc1O`, the TGI in test [1] was 83 µM; in test [2], more than 100 µM; in test [3], more than 100 µM; in [4] it was more than 100 µM; in test [5], more than 100 µM; in test [6] it was 67.6 µM. For the same compound, the TGI was more than 100 µM in test [7], 70 µM in test [8], 74.7 µM in [9] and more than 100 µM in test [10].
Turning to `O=C(Nc1ccccc1)c1cc2ccccc2c(N=Nc2cccc([N+](=O)[O-])c2)c1O`, the TGI in test [1], in test [2], in [3], in test [4], in test [5] and in test [6] was more than 100 µM each time. For the same compound, the TGI in test [7], in test [8], in test [9] and in test [10] was more than 100 µM each time.
Consider `Cc1ccc(Nc2c3c(c(C#N)c4nc5ccccc5n24)CCCC3)cc1`, for which the TGI is more than 100 µM in test [1]; more than 100 µM in [2]; 87.2 µM in test [3]; more than 100 µM in [4]; 74.4 µM in test [5]; 65.6 µM in [6]. In addition, the TGI in [7] was more than 100 µM; in test [8], more than 100 µM; in [9] it was 55 µM; in test [10], 31.6 µM.
With `C1=N[C@]23C(=N[C@H](N=C2NCc2ccco2)[C@]24N=CNC2=N[C@H]3N=C4NCc2ccco2)N1`, the GI50 in test [1], in test [2], in test [3], in [4], in test [5] and in test [6] was more than 100 µM in each case. The GI50 in [7] is 19.5 µM; in test [8], more than 100 µM; in test [9], more than 100 µM; in test [10] it was more than 100 µM. Besides, the TGI in test [1], in test [2], in [3], in test [4], in test [5] and in test [6] was more than 100 µM throughout. Besides, the TGI in test [7], in test [8], in test [9] and in [10] was more than 100 µM each time.
Take `N/C(=N\N=C\c1cc2ccccc2s1)c1cnccn1`: the TGI in test [1], in [2], in test [3], in test [4], in [5] and in test [6] was more than 100 µM throughout. Further, the TGI in test [7], in [8], in [9] and in [10] was more than 100 µM throughout.
Turning to `Cc1sc2c(c1C)C(=O)c1cccn1-2`, the TGI in test [1], in test [2], in [3], in test [4], in [5] and in test [6] was more than 100 µM throughout. Besides, the TGI in test [7], in [8], in [9] and in [10] was more than 100 µM in each case.

For the origin of these results see PubChem BioAssay (NCI).
